# Like-named read-outs stand apart in the source and are kept apart here.
# Tests used:
# Rat Paw Carrageenin = test: standard Rat Paw Carrageenin Test, anti-inflammatory activity; assay type: in vivo
# Description: (§1) Using a conventional Allen-Doisy Test, the Oestrogenic activity of certain compounds of the invention was ascertained. The anti-inflammatory activity of certain compounds of the invention was ascertained by using a standard Rat Paw Carrageenin Test.
# oestrogenicity [1] = test: Allen-Doisy Test, oestrogenic activity (mouse); assay type: in vivo
# Description: as §1
# oestrogenicity [2] = test: Allen-Doisy Test, oestrogenic activity (rat); assay type: in vivo
# Description: as §1
# [3] = system: seminal vesicles, prostate gland or levator ani muscles; test: Anabolic/Androgenic Activity in Rats; assay type: in vivo, rat; settings: 200 mg/kg p.o.
# Description: j. Anabolic/Adrogenic Activity in Rats
# [4] = system: gastric secretion / gastric damage; test: Gastric Damage in Pyloric Ligated Rats; assay type: in vivo; settings: up to 200 mg/kg intra-duodenally, pyloric ligated rat
# Description: 1. Gastric Damage in Pyloric Ligated Rats
# [5] = system: Carrageenin Induced Oedema; test: Carrageenin Induced Oedema in Rats; assay type: in vivo, rat
# Description: a. Carrageenin Induced Oedema in Rats
# [6] = system: release of corticosteroids from the adrenal gland; test: Interactions with the Adrenal/Pituitary Axis; assay type: in vivo; settings: 140 mg/kg p.o./day, five days
# Description: h. Interactions with the Adrenal/Pitutary Axis
# gastro intestinal tract = test: Long term toxicity tests, gastro-intestinal tolerance; assay type: in vivo, rat; settings: 180 mg/kg p.o. for 28 days
# Adjuvant arthritis = test: Adjuvant Arthritis in Rats; assay type: in vivo, rat; settings: 60 mg/kg p.o. daily
# Method: d. Adjurant Arthritis in Rats
# Adjuvant arthritis is reduced in rats by the daily administration of doses of 60 mg/kg p.o.
# [7] = system: pyresis induced by Shigella endotoxin; test: Anti-pyretic Effect in Rabbits; assay type: in vivo, rabbit; settings: doses down to 100 mg/kg p.o.
# Description: g. Anti-pyretic Effect in Rabbits
# [8] = system: Cotton Pellet Induced Granuloma; test: Cotton Pellet Induced Granuloma in Rats; assay type: in vivo, rat; settings: 50 mg/kg p.o., day 0 to 5 days
# Method: c. Cotton Pellet Induced Granuloma in Rats
# Consistent activity (reducing induced granuloma by more than 30%) has been observed at 50 mg/kg p.o. dosed from day 0 to 5 days.
# UV Induced Erythrema = UV Induced Erythrema in Guinea Pigs; assay type: in vivo, guinea pig; settings: Cavia porcellus, po
# Description: b. UV Induced Erythrema in Guinea Pigs
# [9] = system: gastric erosions or ulceration; test: Ulcerogenic Activity in Rats; assay type: in vivo, rat; settings: 250 or 500 mg/kg p.o.
# Description: m. Ulcerogenic Activity in Rats.
# [10] = system: Phenyl-p-quinone Induced Writhing; test: Phenyl-p-quinone Induced Writhing in Mice; assay type: in vivo; settings: Mus musculus, po, read-out: ED50 for analgesic activity
# Description: f. Phenyl-p-quinone Induced Writhing in Mice
# endometrium = test: Gestagenic Activity in Rabbits (Clauberg test); assay type: in vivo, rabbit; settings: 200 mg/kg p.o., 4 days
# Description: k. Gestagenic Activity in Rabbits
# uterine weight = test: Oestrogenic Test in Rats (ovariectomised rats, uterine weight); assay type: in vivo, rat; settings: 200 mg/kg p.o. and 600 mg/kg p.o., 4 days
# Description: i. Oestrogenic Test in Rats
# [11] = system: cultured mouse peritoneal macrophages; test: Macrophage Plasminogen Activator Release Test; assay type: cell-based; settings: 1 mg/ml
# Description: e. Macrophage Plasmongen Activator Release Test
# On the test system of J. D. Vassalli et al., Cell, 8, 271-281 (1976), the compound […] caused 90% inhibition of the release of plasmogen activator from cultured mouse peritoneal macrophages.
# [12] = General statements on gastro-intestinal irritation, oestrogenicity and anti-inflammatory activity; assay type: in vivo
structure (smiles),measurement,setting,value
COc1ccc2cc(C(C)C(C)(O)C(C)=O)ccc2c1 (centres unmarked) [3-hydroxy-3-methyl-4-(6'-methoxy-2'-naphthyl)-pentan-2-one],"Anti-inflammatory, rat carrageenan",Rat Paw Carrageenin; 50 and 100 mg/kg orally,Active
same,"Oestrogenicity, Allan-Doisy test",oestrogenicity [1]; 100 mg/kg sub.cut.,Active
CCC(c1ccc2cc(OC)ccc2c1)C(C)(O)C(C)=O (centres unmarked) [3-hydroxy-3-methyl-4-(6'-methoxy-2'-naphthyl)-hexan-2-one],"Anti-inflammatory, rat carrageenan",Rat Paw Carrageenin; 100 mg/kg orally,Inactive
same,"Oestrogenicity, Allan-Doisy test",oestrogenicity [1]; 50 mg/kg sub.cut.,Active
COc1ccc2cc(/C(C)=C/C(C)=O)ccc2c1 [trans-4-(6'-methoxy-2'-naphthyl)-pent-3-ene-2-one],"Anti-inflammatory, rat carrageenan",Rat Paw Carrageenin; 100 mg/kg orally,Active
same,"Oestrogenicity, Allan-Doisy test",oestrogenicity [1]; 100 mg/kg sub.cut.,Inactive
COc1ccc2cc(C(C)CC(C)=O)ccc2c1 (centres unmarked) [4-(6'-methoxy-2'-naphthyl)-pentan-2-one],"Oestrogenicity, Allan-Doisy test",oestrogenicity [2]; 200 mg/kg orally,Inactive
same,"Oestrogenicity, Allan-Doisy test",oestrogenicity [2]; 300 mg/kg orally,Active
same,"Anti-inflammatory, rat carrageenan",Rat Paw Carrageenin; 50 mg/kg orally,Slightly Active
same,"Anti-inflammatory, rat carrageenan","Rat Paw Carrageenin; 100 mg/kg orally, 1 hr. after dosing",Active
same,"Anti-inflammatory, rat carrageenan",Rat Paw Carrageenin; 300 mg/kg orally,Active
"COc1ccc2cc(C(C)C(C)=O)ccc2c1 (centres unmarked) [3-(6'-methoxy-2'-naphthyl)-butan-2-one, 3-(6'-methoxy-2'-napthyl)-butan-2-one]","Oestrogenicity, Allan-Doisy test",oestrogenicity [2]; 600 mg/kg orally,Inactive
same,"Anti-inflammatory, rat carrageenan",Rat Paw Carrageenin; 100 mg/kg orally,Active
same,"Oestrogenicity, Allan-Doisy test",oestrogenicity [1]; 50 mg/kg sub.cut.,Inactive
COc1ccc2cc(CCC(C)=O)ccc2c1 [4-(6'-methoxy-2'-naphthyl)butan-2-one],"increase in weight of seminal vesicles, prostate gland or levator ani muscles","[3]; 4 days, castrated young male rats",did not result in any increase
same,interference with androgenic/anabolic activity of concomitantly administered testosterone,[3]; testosterone 1 mg/kg s.c.,did not interfere
same,overt gastric damage,[4],nor did overt gastric damage result
same,systemically mediated effect on the volume of gastric secretion,[4],have not been found to have a systemically mediated effect
same,reduction in induced oedema volume,"[5]; 5, 10, 35 and 70 mg/kg p.o.",significant reduction
same,ED25,"[5]; Rattus norvegicus, po, rats",7 to 10 mg/kg
same,Activity in adrenalectomised rats,[5]; adrenalectomised rats,Activity is maintained
same,interference with release of corticosteroids in response to ACTH administration or to ether stress,[6],does not interfere
same,gastro intestinal tolerance,gastro intestinal tract,well tolerated
same,Adjuvant arthritis,Adjuvant arthritis,reduced
same,reduction of pyresis induced by intravenous Shigella endotoxin,[7],reduced pyresis
same,"changes in body weight or in weight of spleen, thymus, kidney, liver or adrenal glands",[8],not accompanied by marked changes
same,ED50,UV Induced Erythrema,9 to 15 mg/kg
same,"gastric erosions, longer contact times",[9]; longer than 4 hours,in some cases to some degree of erosions
same,gastric erosions or ulceration,"[9]; rats starved 18 hours, 1 or 4 hours after dosing",did not give rise to gastric erosions or ulceration
same,ED50,[10]; mice,~110 mg/kg
same,uterine hypertrophy or progestational changes in the endometrium,endometrium,did not result in uterine hypertrophy or progestational changes in the endometrium
same,increase in uterine weight,uterine weight,did not result in any increase in uterine weight
same,inhibition of the release of plasminogen activator,[11],slight inhibition
same,oestrogenic effects or gastric-irritant effects,[12]; at the therapeutic dose,not causing either oestrogenic effects or pronounced gastric-irritant effects
same,anti-inflammatory activity,[12]; general statement,good spectrum of anti-inflammatory activity
same,anti-pyretic and analgesic activity,[12]; general statement,anti-pyretic and analgesic activity
same,hormone like activity,[12]; general statement,free of hormone like activity
same,therapeutic ratio based on gastro intestinal irritancy,[12]; general statement,good therapeutic ratio
"CC(=O)Oc1ccccc1C(=O)O [ASPIRIN, acetylsalicylic acid, reference compound]",ED50,[10],~60 mg/kg
COc1ccc2cc(C=CC(C)=O)ccc2c1 [4-(6-Methoxy-2-naphthyl)-3-buten-2-one],"Oestrogenicity, Allan-Doisy test",oestrogenicity [2]; 300 mg/kg orally,Inactive
same,"Anti-inflammatory, rat carrageenan",Rat Paw Carrageenin; 300 mg/kg orally,Active

# Reference: patent publication US4061779A, “Naphthalene derivatives having anti-inflammatory activity” (Beecham Group Limited, priority 1973, dated 1977)
